From EP4008401A1, “COMPOSITION FOR CARTILAGE REGENERATION PROMOTION” (Suntory Holdings Limited, priority 2019, dated 2021)
Read-outs that look alike come from different tables or passages of the source.

Test system: human synovial cells
Test: Cartilage pellet culture of human synovial cells (weight of cartilage pellets; differentiation into cartilage cells)
Type: cell-based
Conditions: for activity at 5 µM / activity at 50 µM: Homo sapiens, Synovial cell, 504 h, read-out: Rate of increase (%); for Weight of pellets (g) (Ave): cultured three weeks; for weight of the cartilage pellets as compared to the control: result in words
Procedure: Purchased human synovial cells (available from Toyobo Co., Ltd.; HFLS (Normal), cryopreserved cells (adult); Code No. CA40805a) were seeded into a 150 mm culture dish (available from Corning) at a low density of 50 cells/cm^2 and cultured for 14 days.
The human synovial cells were cultured in the following medium. • α-MEM (available from Nacalai Tesque Inc.) • 10% Fetal bovine serum (available from Sigma-Aldrich) Antibiotic-Antimycotic Mixed Stock Solution (available from Nacalai Tesque Inc.)
Proliferated human synovial cells were detached with Accutase (available from Funakoshi Co., Ltd.), and the medium containing 20 × 10^4 cells was placed in a 15 mL tube made of polypropylene, followed by centrifugation at 1000 × rpm for five minutes. The recovered human synovial cells were cultured in a medium containing a test compound shown in Table 1 for three weeks, and the weight of the resultant cartilage pellets was measured (N = 3, each). The medium containing the test compound was replaced once in two or three days. The test compound was dissolved in the medium using dimethyl sulfoxide (DMSO) (available from Nacalai Tesque Inc.; final concentration: 0.1%) to a final concentration of 50 µM. The test compound was taxifolin (available from Sigma-Aldrich) or hesperetin (available from Funakoshi Co., Ltd.).
The cartilage pellets were cultured in the following medium. The control was cultured by adding DMSO without test compounds to the medium described below (final concentration of DMSO: 0.1%).
DMEM high-glucose (available from Thermo Fisher Scientific) 50 µg/mL L-ascorbic acid 2-phosphate sesquimagnesium salt hydrate (available from Sigma-Aldrich) 40 µg/mL L-proline (available from Sigma-Aldrich) 100 µg/mL Sodium pyruvate (available from Sigma-Aldrich) 50 mg/mL ITS + Premix (available from Corning) 10 ng/mL Transforming growth factor β3 (available from Sigma-Aldrich) 100 nM Dexamethasone (available from Sigma-Aldrich) 50 ng/mL Bone morphogenetic protein 2 (BMP-2) (available from Sigma-Aldrich)
In Table 1, the weight of pellets (g) is the weight of the cartilage pellets (average with N of 3), and SE is the standard error of the weight of pellets. […] A significant difference in the rate of increase (%) determined from the weight of the cartilage pellets relative to the control was tested by Student's t-test, with the significance level being 5% or lower. […]
The test of Example 1 was repeated, except that quercetin (available from Nacalai Tesque Inc.), isorhamnetin (available from Funakoshi Co., Ltd.), or eriodictyol (available from Funakoshi Co., Ltd.) was used as a test compound, and the test compound in the medium was adjusted to a final concentration of 5 µM. […] A significant difference test was performed as in Example 1, with the significance level being 5% or lower.
The test of Example 1 was repeated, except that luteolin (available from Funakoshi Co., Ltd.) or morin (available from Nacalai Tesque Inc.) was used as a test compound, and the test compound in the medium was adjusted to a final concentration of 5 µM. […] A significant difference test was performed as in Example 1, with the significance level being 5% or lower and the marginal significance level being 10% or lower. […]
The test of Example 1 was repeated, except that the compounds shown in Table 4 were used as test compounds and tested with N = 1. […] The final concentration of each of the compounds Nos. 1 to 15 in the medium was adjusted to 5 µM. The final concentration of each of the compounds Nos. 16 to 21 in the medium was adjusted to 50 µM.

[1] = Comparative Example 1, compounds Nos. 1 to 15, 5 µM, weight relative to control taken as 100%, N = 1
[2] = Example 2, test compound 5 µM in medium, average with N of 3
[3] = Example 2, 5 µM, weight of cartilage pellets relative to control taken as 100%, N = 3
[4] = Comparative Example 1, compounds Nos. 16 to 21, 50 µM, weight relative to control taken as 100%, N = 1
[5] = Example 1, test compound 50 µM in medium, average with N of 3
[6] = Example 1, 50 µM, weight of cartilage pellets relative to control taken as 100%, N = 3
[7] = Example 3, test compound 5 µM in medium, average of N of 3
[8] = Example 3, 5 µM, weight of cartilage pellets relative to control taken as 100%, N = 3

O=C(/C=C/c1ccc(O)cc1)c1ccc(O)cc1O [Isoliquiritigenin] gave an activity at 5 µM of 82.1%.
In the case of O=C(/C=C/c1ccc(O)cc1)c1c(O)cc(O)cc1O [4,2',4',6'-Tetrahydroxychalcon], the activity at 5 µM [1] is reported as 118%.
Compound O=c1c(-c2ccc(O)cc2)coc2cc(O)cc(O)c12 [Genistein] has an activity at 5 µM [1] of 104%.
O=c1c(O)c(-c2ccc(O)c(O)c2)oc2cc(O)cc(O)c12 [Quercetin, quercetin] was tested, and the “Weight of pellets (g) (Ave)” value [2] was 5.90 g, the “weight of the cartilage pellets as compared to the control” value (“weight … compared to the control” for short) (Examples 2 and 3, 5 µM) was “significant increase” and the activity at 5 µM [3] was 162%.
With O=c1c(O)c(-c2ccc(O)cc2)oc2cc(O)cc(O)c12 [Kaempferol] the activity at 50 µM [4] was 95.8%.
COc1ccc(-c2coc3cc(O)cc(O)c3c2=O)cc1 [Biochaninn A] was tested, and the activity at 5 µM [1] was 21.4%.
In the case of Oc1cc(O)c2cc(O)c(-c3cc(O)c(O)c(O)c3)[o+]c2c1 [Delphinidin], the activity at 5 µM [1] is reported as 41.9%.
With COc1ccc([C@@H]2CC(=O)c3c(O)cc(O)cc3O2)cc1O [Hesperetin, hesperetin] the “weight … compared to the control” value (Example 1, 50 µM) was “significant increase”, the “Weight of pellets (g) (Ave)” value [5] was 5.50 g and the activity at 50 µM [6] was 139%.
Work on O=c1cc(-c2ccccc2)oc2cc(O)cc(O)c12 [Chrysin] yielded an activity at 50 µM [4] of 108%.
Work on O=c1c(-c2ccc(O)cc2)coc2cc(O)ccc12 [Daidzein] yielded an activity at 5 µM [1] of 100%.
Compound Oc1cc(O)c2cc(O)c(-c3ccc(O)c(O)c3)[o+]c2c1 [Cyanidin] has an activity at 5 µM [1] of 51.2%.
For Oc1cc(O)c2c(c1)OC(c1ccc(O)c(O)c1)C(O)C2 (stereo not drawn) [Catechin], the activity at 50 µM was 112%.
O=c1cc(-c2ccc(O)cc2)oc2cc(O)cc(O)c12 [Apigenin] showed an activity at 5 µM [1] of 105%.
For O=c1c(O)c(-c2cc(O)c(O)c(O)c2)oc2cc(O)cc(O)c12 [Myricetin], the activity at 5 µM [1] was 69.8%.
COc1ccc(-c2coc3cc(O)ccc3c2=O)cc1 [Formononetin] gave an activity at 5 µM [1] of 100%.
COc1ccc(-c2coc3cc(O)ccc3c2=O)cc1O [Calycosin] gave an activity at 5 µM [1] of 95.3%.
O=C1c2c(O)cc(O)cc2OCC1c1ccc(O)cc1 (stereo not drawn) [Dihydrogenistein] was tested, and the activity at 50 µM [4] was 92.9%.
Oc1cc(O)c2c(c1)O[C@H](c1ccc(O)c(O)c1)[C@H](O)C2 [Epicatechin] showed an activity at 50 µM [4] of 117%.
In the case of O=c1cc(-c2ccc(O)c(O)c2)oc2cc(O)cc(O)c12 [Luteolin, luteolin], the “Weight of pellets (g) (Ave)” value [7] is reported as 3.53 g, the “weight … compared to the control” value (Examples 2 and 3, 5 µM) is reported as “increase” and the activity at 5 µM [8] is reported as 128%.
For O=c1c(O)c(-c2ccc(O)cc2O)oc2cc(O)cc(O)c12 [Morin, morin], the “Weight of pellets (g) (Ave)” value [7] was 4.00 g, the “weight … compared to the control” value (Examples 2 and 3, 5 µM) was “significant increase” and the activity at 5 µM [8] was 145%.
With O=C1C[C@@H](c2ccc(O)c(O)c2)Oc2cc(O)cc(O)c21 [Eriodictyol, eriodictyol] the “Weight of pellets (g) (Ave)” value [2] was 4.80 g, the “weight … compared to the control” value (Examples 2 and 3, 5 µM) was “significant increase” and the activity at 5 µM [3] was 132%.
Oc1ccc([C@H]2COc3cc(O)ccc3C2)cc1 [Equol] was tested, and the activity at 5 µM was 81.4%.
Compound C[C@@H]1O[C@@H](O[C@H]2C(=O)c3c(O)cc(O)cc3O[C@@H]2c2ccc(O)c(O)c2)[C@H](O)[C@H](O)[C@H]1O [Astilbin] has an activity at 5 µM [1] of 60.5%.
O=C1c2c(O)cc(O)cc2O[C@H](c2ccc(O)c(O)c2)[C@H]1O [Taxifolin, taxifolin] was tested, and the “weight … compared to the control” value (Example 1, 50 µM) was “significant increase”, the “Weight of pellets (g) (Ave)” value [5] was 5.73 g and the activity at 50 µM [6] was 144%.
O=C(/C=C/c1ccc(O)c(O)c1)c1c(O)cc(O)cc1O [3,4,2',4',6'-Pentahydroxychalcon] was tested, and the activity at 5 µM [1] was 111%.
For COc1cc(-c2oc3cc(O)cc(O)c3c(=O)c2O)ccc1O [Isorham netin, isorhamnetin], the “Weight of pellets (g) (Ave)” value [2] was 5.77 g, the “weight … compared to the control” value (Examples 2 and 3, 5 µM) was “significant increase” and the activity at 5 µM [3] was 159%.
With O=C1C[C@@H](c2ccc(O)cc2)Oc2cc(O)cc(O)c21 [Naringenin] the activity at 50 µM [4] was 117%.
In the case of O=c1c(-c2ccc(O)c(O)c2)coc2cc(O)ccc12 [7,3',4'-Trihydroxyisoflavone], the activity at 5 µM [1] is reported as 95.3%.
